Assay results reported in ChEMBL document CHEMBL1136604, “Cryptophycin affinity labels: synthesis and biological activity of a benzophenone analogue of cryptophycin-24” (Bioorg Med Chem Lett, 2003).
Converted amounts (≈) assume the structure as drawn.

How the values were obtained:
[1] = system: HCT-116; experiment: Inhibitory activity against HCT116 cells after 24 hr cell growth; assay type: functional, cell-based; settings: Homo sapiens, HCT-116, 24 h
[2] = system: MCF7S; experiment: Inhibitory activity against MCF-7 cells after 72 hr cell growth; assay type: functional, cell-based; settings: Homo sapiens
[3] = system: NCI/ADR-RES; experiment: Inhibitory activity against MCF7-ADR cells after 72 hr cell growth; assay type: functional, cell-based; settings: Homo sapiens
[4] = biological target: Tubulin; experiment: Concentration required to reduce the amount of pelleted tubulin; assay type: protein-complex assay
[5] = system: KB; experiment: Cytotoxicity against KB cells; assay type: functional, cell-based; settings: Homo sapiens

Row | Compound | IC50 [1] [nM] | IC50 [2] [nM] | IC50 [3] [nM] | IC50 [4] [nM] | IC50 [5] [ng/mL]
1 | COc1ccc(C[C@H]2NC(=O)/C=C/C[C@@H]([C@H](C)[C@H]3O[C@@H]3c3ccc(C(=O)c4ccccc4)cc3)OC(=O)[C@H](CC(C)C)OC(=O)CCNC2=O)cc1 | 1.1 | 0.078 | 70 | 7400 | 
2 | COc1ccc(C[C@H]2NC(=O)/C=C/C[C@@H]([C@H](C)[C@@H]3O[C@@H]3c3ccc(C(=O)c4ccccc4)cc3)OC(=O)[C@H](CC(C)C)OC(=O)CCNC2=O)cc1 | 253 | 6 | 447 | > 100000 | 
3 | COc1ccc(C[C@H]2NC(=O)/C=C/C[C@@H]([C@H](C)[C@H]3O[C@@H]3c3ccccc3)OC(=O)[C@H](CC(C)C)OC(=O)CCNC2=O)cc1 [ARENASTATIN A] | 0.285 | 0.13 | 0.164 | 15000 | 0.005 (≈ 0.00824 nM)
4 | COc1ccc(C[C@H]2NC(=O)/C=C/C[C@@H]([C@H](C)[C@H]3O[C@@H]3c3ccccc3)OC(=O)[C@H](CC(C)C)OC(=O)[C@H](C)CNC2=O)cc1Cl [CRYPTOPHYCIN A] | 0.027 | 0.003 | 0.013 | 3700 | 
